Experimental findings from ChEMBL document CHEMBL1201862, “PubChem BioAssay data set” (2004) are described below.

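Five concentrations, 48 hours, 96-well plates. The concentration for 50% growth inhibition is given as GI50.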 Activity calls are given as the source filed them. Rule as the data show it: active = GI50 up to about 1.1 µM and inactive = higher.

Some test systems named below: UACC-257; NCI-H460; HL-60; K562; Malme-3M; SK-MEL-28; MOLT-4; SNB-75; LXFL 529; COLO 205; KM12; HCC 2998; ACHN; U-251; HCT-15.
Common to all, as to experiment: NCI-60 cell line screen, 48 h

Consider `COc1ccccc1NC(=O)C(CC(C(=O)Nc1ccccc1OC)/C(C)=N/NC(=O)c1ccccc1O)/C(C)=N/NC(=O)c1ccccc1O` (stereo not given), for which the GI50 was > 100 µM (inactive) in the experiment with UACC-257; 57.9 µM (inactive) with NCI-H460; 47.5 µM (inactive) in the experiment on HL-60; > 100 µM (inactive) in the experiment on K562; > 100 µM (inactive) with Malme-3M; > 100 µM (inactive) in the experiment with SK-MEL-28. Besides, the GI50 in the experiment with MOLT-4 is 47.5 µM (inactive); in the experiment with SNB-75 it was 96.6 µM (inactive); in the experiment on LXFL 529 it was 66.4 µM (inactive); with COLO 205 it was > 100 µM (inactive); with KM12 it was > 100 µM (inactive); with HCC 2998, > 100 µM (inactive). Besides, the GI50 in the experiment on ACHN is 98.6 µM (inactive); with U-251, 59 µM (inactive).
For `CC(Cn1c2c3ccccc3ccc2c2oc(=O)c3ccccc3c21)N(C)C` (stereo not given), the GI50 in the experiment with UACC-257, in the experiment on NCI-H460, with HL-60, with K562, in the experiment on Malme-3M and in the experiment with SK-MEL-28 was > 100 µM (inactive) throughout. Further, the GI50 with MOLT-4, in the experiment with SNB-75, in the experiment with LXFL 529, with COLO 205, in the experiment on KM12 and in the experiment with ACHN was > 100 µM (inactive) in each case. Further, the GI50 with HCT-15 was over 100 µM; in the experiment on U-251, > 100 µM (inactive).
For `COc1cccc(C2c3cc4c(cc3OC(O)(CO)C2C(=O)O)OCO4)c1.COc1cccc(C2c3cc4c(cc3OC3(O)COC(=O)C23)OCO4)c1` (stereo not given), the GI50 is 41.5 µM (inactive) in the experiment with UACC-257; 21.2 µM (inactive) in the experiment on NCI-H460; 33.7 µM (inactive) in the experiment on HL-60; 37.7 µM (inactive) with K562; > 100 µM (inactive) in the experiment with Malme-3M; 26.9 µM (inactive) in the experiment with SK-MEL-28. Also, the GI50 is 35.7 µM (inactive) in the experiment on MOLT-4; 14.5 µM (inactive) in the experiment with SNB-75; 57.9 µM (inactive) with LXFL 529; > 100 µM (inactive) with COLO 205; 35.7 µM (inactive) in the experiment on KM12; > 100 µM (inactive) in the experiment with HCC 2998. Further, the results for the GI50 with ACHN, with HCT-15 and with U-251 were 49.5 µM (inactive), 43.9 µM and 22.2 µM (inactive), respectively.
In the case of `COC(=O)C(c1ccc(OC)cc1)N1C(=O)[C@@H](NC(=O)c2ccccc2)[C@H]1[C@@H](C)O` (stereo not given in full), the GI50 in the experiment on UACC-257, with NCI-H460, in the experiment with HL-60, in the experiment on K562, in the experiment on Malme-3M and with SK-MEL-28 was > 100 µM (inactive) in each case. Moreover, the GI50 in the experiment on MOLT-4, in the experiment with SNB-75, in the experiment on LXFL 529, in the experiment with COLO 205, with KM12 and with HCC 2998 was > 100 µM (inactive) each time. Further, the GI50 in the experiment with ACHN was > 100 µM (inactive); in the experiment on HCT-15, over 100 µM; in the experiment with U-251, > 100 µM (inactive).
Take `COC(OC)[C@@H](C)[C@H](O)[C@](C)(O)C1OC(C)(C)OC(C(C)C=C(C)C)C1C` (stereo not given in full): the GI50 is 93.1 µM (inactive) in the experiment with UACC-257; > 100 µM (inactive) with NCI-H460; 29.9 µM (inactive) in the experiment on HL-60; 77.1 µM (inactive) with K562; > 100 µM (inactive) with Malme-3M; > 100 µM (inactive) with SK-MEL-28. Moreover, the GI50 with MOLT-4 is 72.4 µM (inactive); in the experiment with SNB-75, > 100 µM (inactive); in the experiment with LXFL 529, > 100 µM (inactive); with COLO 205 it was > 100 µM (inactive); in the experiment on KM12, > 100 µM (inactive); in the experiment with ACHN, > 100 µM (inactive). Also, the GI50 with HCT-15 was over 100 µM; with U-251, > 100 µM (inactive).
Turning to `[O-]c1c2cc(-[n+]3c(-c4ccccc4)cc(-c4ccccc4)cc3-c3ccccc3)cc1COCCOCCOCCOCCOC2`, the GI50 in the experiment on UACC-257 is 24 µM (inactive); in the experiment on HL-60, 31.8 µM (inactive); with K562 it was 34 µM (inactive); in the experiment with Malme-3M, 34.2 µM (inactive); with SK-MEL-28 it was 18 µM (inactive); in the experiment with MOLT-4, 32.1 µM (inactive). Also, the GI50 in the experiment on SNB-75 is 41.7 µM (inactive); in the experiment on LXFL 529, 21.2 µM (inactive); in the experiment with COLO 205, 18.7 µM (inactive); in the experiment with KM12 it was 20.4 µM (inactive); in the experiment with HCC 2998 it was 41.7 µM (inactive); in the experiment with ACHN, > 100 µM (inactive). The GI50 is 73.6 µM in the experiment on HCT-15 and 38.8 µM (inactive) in the experiment with U-251.
Consider `O=[N+]([O-])c1cccc(C2=NN(c3ccccc3)C3c4ccccc4OCC23)c1` (stereo not given), for which the GI50 is > 100 µM (inactive) with UACC-257; > 100 µM (inactive) in the experiment on NCI-H460; 66.1 µM (inactive) with HL-60; 75.3 µM (inactive) in the experiment on K562; > 100 µM (inactive) in the experiment on Malme-3M; > 100 µM (inactive) in the experiment with SK-MEL-28. The GI50 with MOLT-4, in the experiment on SNB-75, in the experiment on LXFL 529, in the experiment on COLO 205, in the experiment on KM12 and in the experiment on HCC 2998 was > 100 µM (inactive) throughout. Moreover, the GI50 with ACHN and with U-251 was > 100 µM (inactive) in each case.
As for `C=CCn1c(=S)sc2c(C(=O)OCC)c3c(C)cc(C)cn3c2c1=O`, the GI50 in the experiment with UACC-257, in the experiment with NCI-H460, in the experiment on HL-60, in the experiment on K562, with Malme-3M and in the experiment with SK-MEL-28 was > 100 µM (inactive) in each case. The GI50 with MOLT-4 is > 100 µM (inactive); with SNB-75, 45.4 µM (inactive); in the experiment with LXFL 529 it was > 100 µM (inactive); with COLO 205 it was > 100 µM (inactive); with HCC 2998 it was > 100 µM (inactive); in the experiment on ACHN, > 100 µM (inactive). For the same compound, the GI50 in the experiment with HCT-15 was over 100 µM; with U-251, 75.9 µM (inactive).
Regarding `Cc1cc(CC(O)c2ccc(Cl)c(Cl)c2)nc(O)n1` (stereo not given), the GI50 in the experiment on UACC-257 was > 100 µM (inactive); with NCI-H460, 34.8 µM (inactive); in the experiment with HL-60, 31 µM (inactive); with K562, 50.1 µM (inactive); with Malme-3M, 81.8 µM (inactive); in the experiment on SK-MEL-28, > 100 µM (inactive). Moreover, the GI50 with MOLT-4 is > 10 µM (inactive); with SNB-75 it was 17.7 µM (inactive); with LXFL 529 it was 20.9 µM (inactive); with COLO 205, 31 µM (inactive); with KM12, 36.4 µM (inactive); with ACHN it was 31.3 µM (inactive). The GI50 is 30.7 µM with HCT-15 and 29.1 µM (inactive) in the experiment with U-251.
Consider `N=C(N)NS(=O)(=O)c1ccc(NC(=O)c2cccc3c(Nc4ccc(S(=O)(=O)N=C(N)N)cc4)c4ccc(Cl)cc4nc23)cc1`, for which the GI50 in the experiment with UACC-257 was 77.6 µM (inactive); with NCI-H460, 76.2 µM (inactive); with K562, 41.3 µM (inactive); with Malme-3M it was 64.4 µM (inactive); in the experiment on SK-MEL-28, 75 µM (inactive); with MOLT-4, 56.2 µM (inactive). For the same compound, the GI50 with SNB-75 was 30.8 µM (inactive); in the experiment on LXFL 529, 33 µM (inactive); in the experiment on COLO 205 it was 47.2 µM (inactive); with KM12 it was > 100 µM (inactive); with HCC 2998, 79.3 µM (inactive); with ACHN, 49.7 µM (inactive). The GI50 in the experiment with HCT-15 was over 100 µM; in the experiment on U-251 it was 37.2 µM (inactive).
Take `Cc1nc(NC(=S)NC(=O)c2ccc(Cl)c(Cl)c2)sc1C(=O)/C=C/c1ccccc1[N+](=O)[O-]`: the GI50 was 30.1 µM (inactive) with UACC-257; 28.9 µM (inactive) in the experiment on NCI-H460; 19.1 µM (inactive) with HL-60; 18.2 µM (inactive) in the experiment with K562; 18.5 µM (inactive) in the experiment with Malme-3M; 25.4 µM (inactive) with SK-MEL-28. Besides, the GI50 with MOLT-4 was 19.8 µM (inactive); with LXFL 529 it was 21.6 µM (inactive); in the experiment with COLO 205 it was 18.4 µM (inactive); in the experiment on KM12, 18.7 µM (inactive); in the experiment on HCC 2998, 33.3 µM (inactive); in the experiment with ACHN, 24.4 µM (inactive). Moreover, the GI50 with HCT-15 was 20.4 µM; in the experiment with U-251, 17.9 µM (inactive).
`Nc1ncnc2c1ncn2CCCC(c1ccccc1)P(=O)(O)O` (stereo not given): the GI50 with UACC-257, with NCI-H460, with HL-60, with Malme-3M, in the experiment with SK-MEL-28 and with SNB-75 was > 100 µM (inactive) each time. In addition, the GI50 was > 100 µM (inactive) in the experiment on LXFL 529; > 100 µM (inactive) in the experiment with COLO 205; > 100 µM (inactive) in the experiment with KM12; > 100 µM (inactive) with HCC 2998; > 100 µM (inactive) in the experiment with ACHN; over 100 µM in the experiment with HCT-15. Besides, in the experiment on U-251, the GI50 is > 100 µM (inactive).
Take `O=C(O)C#CCO`: the GI50 in the experiment with UACC-257, with NCI-H460, in the experiment on HL-60, in the experiment with K562, with Malme-3M and in the experiment on SK-MEL-28 was > 100 µM (inactive) in each case. Further, the GI50 in the experiment with MOLT-4, in the experiment with SNB-75, in the experiment on LXFL 529, in the experiment with COLO 205, with KM12 and with ACHN was > 100 µM (inactive) throughout. Moreover, the GI50 was over 100 µM in the experiment with HCT-15 and > 100 µM (inactive) in the experiment with U-251.
Consider `O=C1C(Br)=CC2(C=C1Br)CCNC1=C2C(=O)c2ccccc2C1=O`, for which the GI50 is 14.1 µM (inactive) with UACC-257; 3.34 µM (inactive) in the experiment on HL-60; 7.89 µM (inactive) in the experiment with K562; 18.1 µM (inactive) in the experiment on Malme-3M; > 10 µM (inactive) with SK-MEL-28; 3.75 µM (inactive) with MOLT-4. The GI50 is > 100 µM (inactive) with SNB-75; 5.37 µM (inactive) with LXFL 529; 4.61 µM (inactive) with COLO 205; 8.22 µM (inactive) in the experiment with KM12; 14.1 µM (inactive) with ACHN; 7.76 µM with HCT-15.
